Experimental data as given in ChEMBL document CHEMBL1137498, “Design, synthesis and biological evaluation of novel lipoamino acid-based glycolipids for oral drug delivery” (Bioorg Med Chem, 2007).
Converted amounts (≈) assume the structure as drawn.

Legend:
[1] = Apparent permeability across Caco-2 cells; type: ADME, cell-based; conditions: human
Pseudomonas aeruginosa = test: Antibacterial activity against Pseudomonas aeruginosa; type: functional
Escherichia coli = test: Antibacterial activity against Escherichia coli; type: functional
Staphylococcus aureus = test: Antibacterial activity against Staphylococcus aureus; type: functional
Klebsiella aerogenes = test: Antibacterial activity against Klebsiella aerogenes; type: functional
Bacillus subtilis = test: Antibacterial activity against Bacillus subtilis; type: functional

## CCN1CCN(C(=O)N[C@@H](C(=O)N[C@@H]2C(=O)N3[C@@H]2SC(C)(C)[C@@H]3C(=O)O)c2ccccc2)C(=O)C1=O [PIPERACILLIN]
[1]
  Papp: 0.0325 ×10⁻⁶ cm/s
Pseudomonas aeruginosa
  MIC: 4 µg/mL (≈ 7.73 µM)
Escherichia coli
  MIC: 4 µg/mL (≈ 7.73 µM)
Staphylococcus aureus
  MIC: 1 µg/mL (≈ 1.93 µM)
Klebsiella aerogenes
  MIC: 8 µg/mL (≈ 15.5 µM)
Bacillus subtilis
  MIC: 0.5 µg/mL (≈ 0.966 µM)
